In ChEMBL document CHEMBL5346912, “Discovery of 3,5-diaryl-1H-pyrazol-based ureas as potent RET inhibitors” (Eur J Med Chem, 2023):
The source made the active and inactive calls. The calls are words filed in the database; no cut-off is given here.

How the values were obtained:
[1] = biological target: Proto-oncogene tyrosine-protein kinase receptor Ret (Mus musculus) (UniProt P35546); assay: Inhibition of RET signalling pathway in mouse BaF3 cells harboring CCDC6-RET-G810C mutant assessed as suppression of SHC activation at 33.3 nM incubated for 4 hrs by Western blot analysis; format: cell-based
[2] = biological target: T1, Proto-oncogene tyrosine-protein kinase receptor Ret (Homo sapiens, UniProt P07949); assay: Inhibition of RET (unknown origin) by DiscoverX KINOMEscan assay
[3] = Cmax in fasted Sprague-Dawley rat at 25 mg/kg, po; format: ADME, organism-based; set-up: dose 25 mg/kg, route po; settings: in vivo
BaF3 [4] = assay: Antiproliferative activity against mouse BaF3 cells expressing CCDC6-RET-V804M incubated for 72 hrs by CCK8 assay; format: functional, cell-based; settings: BaF3, 72 h
[5] = biological target: Epidermal growth factor receptor (Homo sapiens, UniProt P00533); assay: Inhibition of EGFR (unknown origin) by DiscoverX KINOMEscan assay
[6] = biological target: Proto-oncogene tyrosine-protein kinase receptor Ret (Mus musculus) (UniProt P35546); assay: Inhibition of RET signalling pathway in mouse BaF3 cells harboring CCDC6-RET assessed as suppression of RET phosphorylation at 33.3 nM incubated for 4 hrs by Western blot analysis; format: cell-based
[7] = biological target: Proto-oncogene tyrosine-protein kinase receptor Ret (Mus musculus) (UniProt P35546); assay: Inhibition of RET signalling pathway in mouse BaF3 cells harboring CCDC6-RET-V804M mutant assessed as suppression of SHC activation at 33.3 nM incubated for 4 hrs by Western blot analysis; format: cell-based
[8] = biological target: Proto-oncogene tyrosine-protein kinase receptor Ret (Mus musculus) (UniProt P35546); assay: Inhibition of RET signalling pathway in mouse BaF3 cells harboring CCDC6-RET-V804M mutant assessed as suppression of RET phosphorylation at 33.3 nM incubated for 4 hrs by Western blot analysis; format: cell-based
BaF3 [9] = assay: Antiproliferative activity against mouse BaF3 cells expressing CCDC6-RET-G810R incubated for 72 hrs by CCK8 assay; format: functional, cell-based; settings: BaF3, 72 h
[10] = biological target: Epithelial discoidin domain-containing receptor 1 (Homo sapiens, UniProt Q08345); assay: Inhibition of DDR1 (unknown origin) by DiscoverX KINOMEscan assay
[11] = Cmax in Sprague-Dawley rat at 5 mg/kg, iv; format: ADME, organism-based; set-up: dose 5 mg/kg, route iv; settings: in vivo
[12] = Tmax in fasted Sprague-Dawley rat at 25 mg/kg, po; format: ADME, organism-based; settings: in vivo
[13] = AUC (0 to infinity) in Sprague-Dawley rat at 5 mg/kg, iv; format: ADME, organism-based; set-up: dose 5 mg/kg, route iv; settings: in vivo
BaF3 [14] = assay: Antiproliferative activity against mouse BaF3 cells expressing CCDC6-RET incubated for 72 hrs by CCK8 assay; format: functional, cell-based; settings: BaF3, 72 h
[15] = biological target: Proto-oncogene tyrosine-protein kinase receptor Ret (Mus musculus) (UniProt P35546); assay: Inhibition of RET signalling pathway in mouse BaF3 cells harboring CCDC6-RET-G810C mutant assessed as suppression of RET phosphorylation at 33.3 nM incubated for 4 hrs by Western blot analysis; format: cell-based
[16] = AUC (0 to infinity) in fasted Sprague-Dawley rat at 25 mg/kg, po; format: ADME, organism-based; set-up: dose 25 mg/kg, route po; settings: in vivo
[17] = Half life in Sprague-Dawley rat at 5 mg/kg, iv; format: ADME, organism-based; settings: in vivo
BaF3 [18] = assay: cells; settings: Mus musculus, BaF3, 72 h
Description: Antiproliferative activity against mouse BaF3 cells incubated for 72 hrs by CCK8 assay

[19] = biological target: Platelet-derived growth factor receptor beta (Homo sapiens, UniProt P09619); assay: Inhibition of PDGFRB (unknown origin) by DiscoverX KINOMEscan assay
[20] = biological target: Proto-oncogene tyrosine-protein kinase receptor Ret (Mus musculus) (UniProt P35546); assay: Inhibition of RET signalling pathway in mouse BaF3 cells harboring CCDC6-RET assessed as suppression of SHC activation at 33.3 nM incubated for 4 hrs by Western blot analysis; format: cell-based
[21] = biological target: Macrophage colony-stimulating factor 1 receptor (Homo sapiens, UniProt P07333); assay: Inhibition of CSF1R (unknown origin) by DiscoverX KINOMEscan assay
[22] = biological target: Mast/stem cell growth factor receptor Kit (Homo sapiens, UniProt P10721); assay: Inhibition of KIT (unknown origin) by DiscoverX KINOMEscan assay
[23] = biological target: Proto-oncogene tyrosine-protein kinase receptor Ret (Mus musculus) (UniProt P35546); assay: Inhibition of RET signalling pathway in mouse BaF3 cells harboring CCDC6-RET-G810C mutant assessed as suppression of SHC activation incubated for 4 hrs by Western blot analysis; format: cell-based; settings: dose <= 300.0 nM
[24] = biological target: Proto-oncogene tyrosine-protein kinase receptor Ret (Homo sapiens, UniProt P07949, V804M); assay: Inhibition of RET V804M mutant (unknown origin) by DiscoverX KINOMEscan assay
[25] = biological target: Vascular endothelial growth factor receptor 2 (Homo sapiens, UniProt P35968); assay: Inhibition of VEGFR2 (unknown origin) by DiscoverX KINOMEscan assay
[26] = Half life in fasted Sprague-Dawley rat at 25 mg/kg, po; format: ADME, organism-based; settings: in vivo
[27] = Bioavailability in fasted Sprague-Dawley rat at 25 mg/kg, po; format: ADME, organism-based; settings: in vivo
[28] = biological target: Proto-oncogene tyrosine-protein kinase receptor Ret (Mus musculus) (UniProt P35546); assay: Inhibition of RET signalling pathway in mouse BaF3 cells harboring CCDC6-RET-G810C mutant assessed as suppression of RET activation incubated for 4 hrs by Western blot analysis; format: cell-based; settings: dose <= 300.0 nM
BaF3 [29] = assay: Antiproliferative activity against mouse BaF3 cells expressing CCDC6-RET-G810C incubated for 72 hrs by CCK8 assay; format: functional, cell-based; settings: BaF3, 72 h
[30] = biological target: T1, Proto-oncogene tyrosine-protein kinase receptor Ret; assay: Binding affinity to RET (unknown origin) assessed as dissociation constant in presence of ATP by FRET based Z'-Lyte assay
[31] = Toxicity in CB17-SCID mouse model xenografted with mouse BaF3 cells expressing CCDC6-RET-V804M assessed as body weight loss at 30 to 60 mg/kg, po qd via gavage for 14 days; format: organism-based; settings: in vivo, 336 h, dose 30-60 mg/kg, time 14 day
[32] = Toxicity in CB17-SCID mouse model xenografted with mouse BaF3 cells expressing CCDC6-RET-V804M assessed as animal mortality at 30 to 60 mg/kg, po qd via gavage for 14 days; format: organism-based; settings: in vivo, 336 h, dose 30-60 mg/kg, time 14 day
BaF3 [33] = assay: Antitumor activity against mouse BaF3 cells expressing CCDC6-RET-V804M xenografted in CB17-SCID mouse model assessed as tumor growth inhibition at 30 mg/kg, po qd via gavage for 14 days relative to control; format: functional; settings: BaF3, 336 h, time 14 day, read-out: TGI
BaF3 [34] = assay: Antitumor activity against mouse BaF3 cells expressing CCDC6-RET-V804M xenografted in CB17-SCID mouse model assessed as tumor growth inhibition at 60 mg/kg, po qd via gavage for 14 days relative to control; format: functional; settings: BaF3, 336 h, time 14 day, read-out: TGI

T1 sequence (P07949 whole entry): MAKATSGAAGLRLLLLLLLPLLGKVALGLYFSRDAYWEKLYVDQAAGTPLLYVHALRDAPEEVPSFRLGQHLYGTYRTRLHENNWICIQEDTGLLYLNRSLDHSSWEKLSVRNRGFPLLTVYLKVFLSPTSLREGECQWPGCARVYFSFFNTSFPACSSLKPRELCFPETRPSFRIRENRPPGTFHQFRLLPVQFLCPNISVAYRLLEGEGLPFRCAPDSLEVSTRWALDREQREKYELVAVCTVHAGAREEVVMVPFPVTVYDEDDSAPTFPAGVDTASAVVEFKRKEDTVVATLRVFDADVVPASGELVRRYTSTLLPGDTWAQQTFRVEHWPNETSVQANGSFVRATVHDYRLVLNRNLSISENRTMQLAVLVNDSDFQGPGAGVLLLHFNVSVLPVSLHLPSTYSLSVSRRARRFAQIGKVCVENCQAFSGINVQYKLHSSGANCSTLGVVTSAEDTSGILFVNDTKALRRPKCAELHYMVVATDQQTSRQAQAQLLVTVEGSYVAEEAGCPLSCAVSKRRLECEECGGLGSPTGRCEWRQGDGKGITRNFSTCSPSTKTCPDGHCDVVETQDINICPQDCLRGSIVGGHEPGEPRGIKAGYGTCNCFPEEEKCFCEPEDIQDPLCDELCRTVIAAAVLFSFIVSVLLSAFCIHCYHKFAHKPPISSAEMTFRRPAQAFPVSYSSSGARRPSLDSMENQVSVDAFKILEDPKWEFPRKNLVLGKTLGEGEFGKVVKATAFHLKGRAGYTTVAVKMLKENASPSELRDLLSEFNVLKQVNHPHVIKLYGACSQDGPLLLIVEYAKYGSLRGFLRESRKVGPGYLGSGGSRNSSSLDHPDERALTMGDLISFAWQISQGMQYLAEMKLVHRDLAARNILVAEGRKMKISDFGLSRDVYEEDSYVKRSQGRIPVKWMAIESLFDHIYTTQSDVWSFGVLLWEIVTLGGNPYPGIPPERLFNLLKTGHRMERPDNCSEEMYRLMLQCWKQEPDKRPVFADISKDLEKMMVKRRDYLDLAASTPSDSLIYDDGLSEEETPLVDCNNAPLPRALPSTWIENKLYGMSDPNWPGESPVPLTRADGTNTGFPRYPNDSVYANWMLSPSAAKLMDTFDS
Chain of Proto-oncogene tyrosine-protein kinase receptor Ret (Mus musculus) (P35546 whole entry): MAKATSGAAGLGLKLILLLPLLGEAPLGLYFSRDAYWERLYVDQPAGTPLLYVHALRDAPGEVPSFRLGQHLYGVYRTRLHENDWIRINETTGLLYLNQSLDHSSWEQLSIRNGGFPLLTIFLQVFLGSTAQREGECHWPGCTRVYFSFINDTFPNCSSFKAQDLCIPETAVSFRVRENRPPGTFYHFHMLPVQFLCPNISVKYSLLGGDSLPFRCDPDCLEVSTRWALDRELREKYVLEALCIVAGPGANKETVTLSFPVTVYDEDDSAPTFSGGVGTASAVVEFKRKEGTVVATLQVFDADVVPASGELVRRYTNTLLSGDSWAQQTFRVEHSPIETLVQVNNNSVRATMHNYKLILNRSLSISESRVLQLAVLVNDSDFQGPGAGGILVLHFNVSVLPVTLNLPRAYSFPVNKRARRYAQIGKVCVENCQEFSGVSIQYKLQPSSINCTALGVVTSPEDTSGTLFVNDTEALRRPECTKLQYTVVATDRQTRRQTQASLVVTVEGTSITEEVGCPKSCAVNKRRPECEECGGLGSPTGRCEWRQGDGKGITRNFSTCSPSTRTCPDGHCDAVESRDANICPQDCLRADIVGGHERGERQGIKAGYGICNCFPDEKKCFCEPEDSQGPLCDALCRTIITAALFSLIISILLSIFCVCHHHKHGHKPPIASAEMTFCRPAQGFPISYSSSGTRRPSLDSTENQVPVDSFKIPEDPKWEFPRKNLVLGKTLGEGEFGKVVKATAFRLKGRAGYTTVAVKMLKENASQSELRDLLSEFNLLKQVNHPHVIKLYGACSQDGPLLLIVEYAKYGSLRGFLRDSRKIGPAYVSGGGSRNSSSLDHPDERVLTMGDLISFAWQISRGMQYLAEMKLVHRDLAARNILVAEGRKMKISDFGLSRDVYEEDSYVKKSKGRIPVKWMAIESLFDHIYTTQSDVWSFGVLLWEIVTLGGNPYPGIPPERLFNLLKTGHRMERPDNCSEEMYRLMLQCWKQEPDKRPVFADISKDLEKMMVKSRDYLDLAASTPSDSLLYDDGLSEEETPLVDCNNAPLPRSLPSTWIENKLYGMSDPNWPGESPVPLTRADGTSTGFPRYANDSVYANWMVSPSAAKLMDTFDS
Chain of Proto-oncogene tyrosine-protein kinase receptor Ret (Homo sapiens, UniProt P07949, V804M) (P07949 29-1114 V804M limits assumed): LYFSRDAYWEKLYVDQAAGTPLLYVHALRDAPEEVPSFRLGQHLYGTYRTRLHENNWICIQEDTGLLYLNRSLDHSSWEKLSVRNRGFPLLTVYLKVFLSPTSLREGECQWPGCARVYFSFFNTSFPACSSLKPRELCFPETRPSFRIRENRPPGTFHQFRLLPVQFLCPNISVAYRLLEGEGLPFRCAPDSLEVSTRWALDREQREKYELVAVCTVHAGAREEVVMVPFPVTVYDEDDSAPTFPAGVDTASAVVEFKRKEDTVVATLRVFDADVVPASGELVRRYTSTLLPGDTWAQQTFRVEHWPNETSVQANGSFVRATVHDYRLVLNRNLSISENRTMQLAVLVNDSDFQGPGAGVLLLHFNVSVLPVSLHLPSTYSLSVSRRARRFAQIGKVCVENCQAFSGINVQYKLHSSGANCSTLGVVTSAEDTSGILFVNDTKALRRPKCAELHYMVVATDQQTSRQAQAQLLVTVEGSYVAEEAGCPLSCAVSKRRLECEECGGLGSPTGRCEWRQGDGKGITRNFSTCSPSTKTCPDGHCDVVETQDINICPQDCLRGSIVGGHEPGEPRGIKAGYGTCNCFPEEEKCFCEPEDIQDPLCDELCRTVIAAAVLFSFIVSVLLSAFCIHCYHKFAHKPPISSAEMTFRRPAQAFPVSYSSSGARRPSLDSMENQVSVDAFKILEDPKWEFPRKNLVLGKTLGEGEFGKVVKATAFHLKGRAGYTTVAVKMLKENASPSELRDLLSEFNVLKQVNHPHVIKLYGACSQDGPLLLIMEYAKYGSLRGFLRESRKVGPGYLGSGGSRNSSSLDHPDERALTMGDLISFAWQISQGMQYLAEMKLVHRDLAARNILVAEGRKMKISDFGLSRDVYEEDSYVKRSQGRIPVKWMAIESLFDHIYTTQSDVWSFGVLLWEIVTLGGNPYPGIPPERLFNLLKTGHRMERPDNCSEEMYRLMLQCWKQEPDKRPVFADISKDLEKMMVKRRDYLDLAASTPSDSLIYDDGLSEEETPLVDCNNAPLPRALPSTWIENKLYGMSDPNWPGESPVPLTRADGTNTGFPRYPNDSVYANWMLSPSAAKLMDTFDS
Chain of Epidermal growth factor receptor (P00533 whole entry): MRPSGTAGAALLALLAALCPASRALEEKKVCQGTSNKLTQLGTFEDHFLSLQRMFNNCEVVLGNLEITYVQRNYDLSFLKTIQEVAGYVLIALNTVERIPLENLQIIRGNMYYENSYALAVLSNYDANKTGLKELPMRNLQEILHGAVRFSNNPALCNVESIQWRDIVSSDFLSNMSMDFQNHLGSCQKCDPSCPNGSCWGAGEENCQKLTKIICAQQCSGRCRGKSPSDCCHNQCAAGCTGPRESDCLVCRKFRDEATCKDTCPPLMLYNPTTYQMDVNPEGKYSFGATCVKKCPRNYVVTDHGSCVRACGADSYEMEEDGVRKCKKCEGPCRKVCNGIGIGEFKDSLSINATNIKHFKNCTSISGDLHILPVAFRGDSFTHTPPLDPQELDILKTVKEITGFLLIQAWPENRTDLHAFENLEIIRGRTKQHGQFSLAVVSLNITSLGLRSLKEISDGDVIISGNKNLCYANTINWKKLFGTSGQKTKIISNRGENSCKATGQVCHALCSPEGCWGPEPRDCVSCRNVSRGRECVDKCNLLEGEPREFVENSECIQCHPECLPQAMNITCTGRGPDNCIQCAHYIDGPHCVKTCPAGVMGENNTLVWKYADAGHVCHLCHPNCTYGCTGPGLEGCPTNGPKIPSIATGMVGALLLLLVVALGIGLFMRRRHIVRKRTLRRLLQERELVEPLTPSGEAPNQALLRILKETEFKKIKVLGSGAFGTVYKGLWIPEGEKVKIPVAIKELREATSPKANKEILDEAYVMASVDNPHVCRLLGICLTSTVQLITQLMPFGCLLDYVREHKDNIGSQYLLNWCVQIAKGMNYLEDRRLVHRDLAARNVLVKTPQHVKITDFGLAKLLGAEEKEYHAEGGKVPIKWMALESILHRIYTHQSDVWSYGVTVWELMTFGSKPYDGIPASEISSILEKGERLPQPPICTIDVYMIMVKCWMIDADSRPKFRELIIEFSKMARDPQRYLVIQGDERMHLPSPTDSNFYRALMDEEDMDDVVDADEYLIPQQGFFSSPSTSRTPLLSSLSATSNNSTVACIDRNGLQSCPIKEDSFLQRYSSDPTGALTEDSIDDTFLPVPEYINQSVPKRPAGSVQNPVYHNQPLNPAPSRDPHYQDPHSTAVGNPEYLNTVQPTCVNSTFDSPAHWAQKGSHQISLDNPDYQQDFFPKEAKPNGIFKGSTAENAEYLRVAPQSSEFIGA

Structure (SMILES) | inhibition [1] | IC50 [2] [µM] | Cmax [3] [ng/mL] | IC50 (BaF3 [4]) [µM] | IC50 [5] [µM] | inhibition [6] | inhibition [7] | inhibition [8] | IC50 (BaF3 [9]) [µM] | IC50 [10] [µM] | Cmax [11] [ng/mL] | Tmax [12] [h] | AUC(0-inf) [13] [ng·h/mL] | IC50 (BaF3 [14]) [µM] | inhibition [15] | AUC(0-inf) [16] [ng·h/mL] | half-life [17] [h] | IC50 (BaF3 [18]) [µM] | IC50 [19] [µM] | inhibition [20] | further results
CC(C)(C)c1cc(NC(=O)Nc2ccc(-c3cc(-c4ccc(OCCN5CCOCC5)cc4)[nH]n3)cc2)no1 | Active | 0.0161 | 1250 | 0.0094 | > 1 | Active | Active | Active | 0.549 | 0.009 | 10700 | 6 | 15600 | 0.0093 | Active | 20500 | 3.3 | 1.23 | 0.0244 | Active | IC50 [21]: 0.033 µM; IC50 [22]: 0.0216 µM; inhibition [23]: Dose-Dependent Effect; IC50 [24]: 0.0154 µM; IC50 [25]: 0.331 µM; half-life [26]: 6.9 h; bioavailability [27]: 23.6%; inhibition [28]: Dose-Dependent Effect; IC50 (BaF3 [29]): 0.0898 µM; Kd [30]: 0.0043 µM
CC(C)(c1cc(NC(=O)Nc2ccc(-c3cc(-c4ccc(OCCN5CCOCC5)cc4)[nH]n3)cc2)no1)C(F)(F)F | Active | 0.0209 | 2060 | 0.0121 | > 1 | Active | Active | Active | 0.401 | 0.0666 | 9970 | 6.7 | 32500 | 0.0136 | Active | 43800 | 8.8 | 3.87 | 0.0163 | Active | Activity [31]: Non-Toxic; Activity [32]: Non-Toxic; inhibition in vivo at 30 mg/kg (BaF3 [33]): 83.6%; inhibition in vivo at 60 mg/kg (BaF3 [34]): 94.6%; IC50 [21]: 0.108 µM; IC50 [22]: 0.0451 µM; inhibition [23]: Dose-Dependent Effect; IC50 [24]: 0.0183 µM; IC50 [25]: 0.38 µM; half-life [26]: 12.4 h; bioavailability [27]: 21.1%; inhibition [28]: Dose-Dependent Effect; IC50 (BaF3 [29]): 0.0846 µM; Kd [30]: 0.0065 µM
